Where “and” joins values, the source holds several entries; their conditions need not be identical. Identical values can stand only once. Blank lines part the entries; values can stand above or below the compound they belong to.
Tests used:
[1] = test system: AtACBP2 interaction with LYSOPL2; design: method as in Miao et al., 2019; details: ref Miao et al., 2019; cited from earlier work
(His)6-GmACBP3.1_33–346 = assay: Protein–lipid overlay assay; type: binding, soybean; details: commercial strips with 15 neutral and polar lipids; 0.5 μg mL−1 protein
(His)6-GmACBP4.1_33–354 [2] = assay: Protein–lipid overlay assay; type: binding, soybean; details: commercial strips and PA-spotted nitrocellulose strips; 0.5 μg mL−1 protein
(His)6-GmACBP4.1_33–354 [3] = assay: Liposome association assay for PA binding; design: species or system soybean; details: PA:di-16:0-PC liposomes, 0–100% (w/w) PA
(His)6-GmACBP4.1_33–354 [4] = assay: Isothermal titration calorimetry of acyl-CoA binding (WT protein); design: species or system soybean; details: ITC at 25°C; 15 μM protein titrated with 200 μM acyl-CoA; mean ± SD, three experiments; read-out: KD, dissociation constant
Description: ITC was conducted with a MicroCal iTC200 system (GE Healthcare) at 25°C in 10 mM sodium phosphate (pH 7) by 20 injections of 1.8-μL acyl-CoAs (200 μM; Avanti Polar Lipids Inc., Alabaster, AL, USA) into the sample cell with 15 μM purified (His)6-GmACBP4.1. Each injection lasted 4 s at 150-s intervals with a stirring speed of 1,000 rpm. Nonspecific heat effects were estimated and corrected after saturation. The baseline was adjusted, and the data were fitted into a single-site binding model using the Origin version 7.0 software (OriginLab).
Supplemental Table 1. Binding constants and thermodynamic parameters for (His)6-GmACBP4.133–354 interaction with acyl-CoAs. (Supports Figure 5A) […]
Isothermal titration calorimetry analysis was performed by titration of 250 μL of 15 μM (His)6-GmACBP4.133–354 with […]
from three independent experiments. n, stoichiometry (number of ligand sites per protein); KD, dissociation constant; ∆H, enthalpy change; −T∆S, entropy change; ∆G, Gibbs free energy.

[5] = target: (His)6-GmACBP4.1_33–354 (WT or Y135A mutant); assay: Protein–lipid bead binding assay with competing acyl-CoA (PA beads); design: species or system soybean
[6] = test system: GmACBP4.1_33–354 interaction with VLXB:StrepII; assay: Strep-Tactin pull-down assay with supplemented acyl-CoAs; type: binding, soybean; details: acyl-CoA 12.5–100 μM, versus control without acyl-CoA
[7] = test system: GmACBP4.1_33–354 interaction with GmPLDα1:StrepII; assay: as above; type: binding, soybean; details: acyl-CoA 12.5–100 μM, versus control without acyl-CoA
Excerpt: Figure 6 Specific acyl-CoA species facilitate GmACBP4 interaction with VLXB and GmPLDα1. A, Strep-Tactin pull-down assays. […] (His)6-GmACBP4.1_33–354 were detected in eluates by immunoblotting using anti-ACBP3 antibodies. […] Input lanes represent 1% protein. Arrowheads indicate target bands of 40-kD (His)6-GmACBP4.1_33–354 (apparent: 50 kD). The bound protein fraction was quantified densitometrically. […] B–C, Strep-Tactin pull-down assays with supplemented acyl-CoAs. […] Input lanes represent 5% proteins in (B) or 10% proteins in (C). Arrowheads indicate target bands of 40-kD (His)6-GmACBP4.1_33–354 (apparent: 50kD).
Strep-Tactin pull-down assays were performed using Strep-Tactin XT resins (IBA) following the manufacturer’s instructions. Briefly, 5 μL of resins with/without prebound VLXB:StrepII or GmPLDα1:StrepII (0.5 μM) were agitated with GmACBP4.1_33–354 (0.5 μM) and acyl-CoAs (0, 12.5, 25, 50, and 100 μM) in Buffer W containing 0.1 M Tris–HCl (pH 7), 0.15 M NaCl, 1 mM EDTA and 0.05% (w/v) Triton X-100 at 4°C for 2 h. After three washes in Buffer W, bound proteins were eluted in Buffer W with 50 mM biotin, and analyzed by immunoblotting using anti-ACBP3.1 antibodies.

AtACBP1 = target: AtACBP1; design: method as in Xue et al., 2014; details: ref Xue et al., 2014; cited from earlier work
GmACBP4.1_33–354 (WT) = target: T1, GmACBP4.1_33–354 (WT) (Glycine max, UniProt I1KAV2); details: SEM, n = 3
T1 construct: gene LOC100816670
T1 sequence (I1KAV2 33-354): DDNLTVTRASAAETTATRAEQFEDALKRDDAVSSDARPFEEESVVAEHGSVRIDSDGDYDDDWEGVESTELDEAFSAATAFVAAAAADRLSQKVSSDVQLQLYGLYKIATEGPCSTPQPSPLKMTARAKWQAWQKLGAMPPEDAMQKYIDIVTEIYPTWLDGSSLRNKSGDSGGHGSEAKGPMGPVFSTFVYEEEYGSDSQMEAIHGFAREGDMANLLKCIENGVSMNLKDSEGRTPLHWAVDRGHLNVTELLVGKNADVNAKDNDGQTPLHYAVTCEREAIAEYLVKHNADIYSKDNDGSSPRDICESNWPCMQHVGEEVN
Description: The liposome-associated protein fraction was quantified densitometrically. […] D, Protein–lipid bead binding assays with competing acyl-CoAs. […] Bound and unbound WT (left panel) and Y135A (middle panel) were detected by immunoblotting using anti-GsACBP3 antibodies. Input lanes represent 50% protein. Arrowheads indicate target bands. The PA-bound protein fraction was quantified densitometrically. The half maximal inhibitory concentration (IC50) of the WT is the mean ± SEM from three independent experiments.
To validate this assumption, the binding of the WT and Y135A mutant to PA beads was investigated in the presence of C18:2-CoA (Figure 5, D).
After three washes in the same buffer, bound proteins were eluted with 6× Laemmli sample buffer. Protein binding on filter strips, liposomes, and PA beads was detected by immunoblotting using anti-ACBP3.1 antibodies.

Compound: lysophosphatidylcholine
- fold higher affinity of AtACBP2 for LYSOPL2 interaction when complexed with the ligand [1]: 10 fold

- binding on lipid filter strips ((His)6-GmACBP3.1_33–346): sole ligand
- binding on lipid filter strips ((His)6-GmACBP4.1_33–354 [2]): sole ligand
- descending order of affinity to the WT (liposome association) ((His)6-GmACBP4.1_33–354 [3]; listed as 32:0-PA): relatively higher affinity
Compound: CCCCCCCCCCCCCCCC(=O)OCC(COP(=O)(O)O)OC(=O)CCCCCCCCCCCCCCC (stereo not drawn) [di-16:0-PA]
- descending order of affinity to the WT (liposome association) ((His)6-GmACBP4.1_33–354 [3]): di-16:0-PA ≈ di-18:1-PA > di-18:0-PA > di-14:0-PA

Compound: CCCCC/C=C\C/C=C\CCCCCCCC(=O)SCCNC(=O)CCNC(=O)[C@H](O)C(C)(C)COP(=O)(O)OP(=O)(O)OC[C@H]1O[C@@H](n2cnc3c(N)ncnc32)[C@H](O)[C@@H]1OP(=O)(O)O [C18:2-CoA, linoleoyl-CoA]
- Kd ((His)6-GmACBP4.1_33–354 [4]): 920 nM and 900 to 1200 nM
- IC50 ([5]; WT protein 2.5 μg mL−1, 1 μM PA beads, competing C18:2-CoA, mean ± SEM, three experiments, read-out: half maximal inhibitory concentration (IC50) for PA-bound WT fraction): 22900 nM
- effect on Y135A binding to PA beads ([5]; Y135A mutant, compared with WT): less affected
- increase in WT binding with VLXB:StrepII [6]: up to four-fold
- increase in WT binding with GmPLDα1:StrepII [7]: did not influence
- Kd (AtACBP1): 400 to 800 nM
- IC50 (GmACBP4.1_33–354 (WT)): 22900 nM

From PMC8894927, “Oxylipin signaling in salt-stressed soybean is modulated by ligand-dependent interaction of Class II acyl-CoA-binding proteins with lipoxygenase” (The Plant Cell, 2021)
